{
  "source": "patent US20240415820A1",
  "about": "“COMBINATIONS FOR RETAINING FOLLICLES RESERVE” (SHEBA IMPACT LTD., priority 2021, published 2024)",
  "key": {"[1]": {"test_system": "mTOR", "assay": "Western blotting of whole ovaries, pmTOR/mTOR", "type": "in vivo, mouse", "settings": "whole ovaries 24 hours after Cy 150 mg/kg, alone or co-treated"}, "[2]": {"settings": "3 cycles of mating after Cy, alone or co-treated"}, "[3]": {"test_system": "PMF oocytes", "assay": "Apoptosis assay, cPARP staining", "type": "in vivo, mouse", "settings": "ovaries removed 24 h after Cy, alone or co-treated; FIG. 7B", "description": "Apoptosis assay: Sample sections (5μ) from ovaries removed 24h after Cy treatment were stained for apoptotic marker cPARP antibody, and all the PMF oocytes were classified as positive/negative for apoptosis. Oocytes were counted from 6-8 ovaries and the ratio of stained oocytes to total oocytes was calculated."}, "[4]": {"test_system": "PMF oocytes", "assay": "DNA damage assay, γH2AX staining", "type": "in vivo, mouse", "settings": "ovaries removed 12 h after Cy, alone or co-treated; FIG. 7A", "method": "BALB/c female mice aged 12 days or 8 weeks (Envigo, Israel) were given a single intraperitoneal injection of 200 μl of PBS or an equal volume of 150 mg/kg Cy (Sigma-Aldrich), 5 mg/kg temsirolimus (Selleck Chemicals; 5 doses in 7 days before Cy treatment, Bozec et al., 2011; Wan et al., 2006) or 5 μg/mouse human C-terminus recombinant AMH (rAMH R&D Systems), 5 doses in 24 hours—every 6 hours following the administration of Cy (Roness et al., 2019). Ovaries were collected either 12 or 24 hours after Cy treatment for protein analysis and histochemical staining, and 3 or 21 days after Cy treatment for H&E staining and follicle counts. Ovaries were removed and placed immediately into either RNA later solution or 4% paraformaldehyde. All procedures were approved by the Institutional Animal Care and Use Institutional Ethics Committee.\nDNA damage assay: Sample sections (5μ) from ovaries removed 12h after Cy treatment were stained for DNA damage evaluation with γH2AX antibody, and all the PMF oocytes were classified as positive/negative for DNA damage. Oocytes were counted from 6-8 ovaries and the ratio of stained oocytes to total oocytes was calculated."}, "[5]": {"test_system": "primordial follicles (PMF)", "assay": "In vivo mouse model of Cy-induced follicle depletion, follicle counting (H&E)", "description": "Ovaries removed 12 h, 24h, 3 days or 21 days following Cy treatment were fixed in PFA, paraffin-embedded and serially sectioned (5-μm).\nFollicle counting: H&E staining was used for differential follicle counts in ovaries removed 3 and 21 days following Cy treatment and conducted as previously described. […] Atretic follicles were not calculated. Only follicles with non-atretic and healthy granulosa cells were counted for total number"}, "[6]": {"test_system": "primary follicles", "assay": "Proliferation assay, Ki-67 staining of primary follicles", "type": "in vivo, mouse", "description": "Mild proliferation: 1-2 granulosa cells per follicle stained for Ki-67. Extensive proliferation: 3 or more granulosa cells per follicle stained for Ki-67. An average number of primary follicles stained in each category in 2-3 sections per ovary was calculated."}, "[7]": {"test_system": "rpS6", "assay": "Western blotting of whole ovaries, prpS6/rpS6", "type": "in vivo, mouse", "settings": "whole ovaries 24 hours after Cy 150 mg/kg, alone or co-treated"}, "[8]": {"test_system": "primordial follicles (PMF)", "assay": "Ex vivo culture of neonatal mouse ovaries with PM, PMF counting (H&E)", "type": "cell-based", "settings": "ex vivo ovaries of 12 days mice, PM 4 hours, with or without 400 nM Tem; FIG. 2A"}, "[9]": {"settings": "Cy 150 mg/kg, with or without Tem, FIG. 3B"}},
  "data": [
    {"compound": "O=P1(N(CCCl)CCCl)NCCCO1", "note": "(stereo not shown) [Cy, cyclophosphamide]", "values": [
      {"measurement": "relative band intensity of phosphorylated mTOR (pmTOR/mTOR ratio)", "setting": "[1]", "value": 1.44},
      {"measurement": "mean litter size", "setting": "[2]", "value": 4.62},
      {"measurement": "PMF oocytes stained positive for cPARP (apoptosis)", "setting": "[3]", "value": 22, "unit": "%"},
      {"measurement": "PMF oocytes stained positive for γH2AX (DNA damage)", "setting": "[4]", "value": "more than 90%"},
      {"measurement": "PMF loss", "setting": "[5]; mouse, in vivo", "value": 77, "unit": "%"},
      {"measurement": "PMFs 3 days after Cy treatment", "setting": "[5]; mouse, in vivo", "value": "59.5±2.7"},
      {"measurement": "number of PMFs three weeks after treatment", "setting": "[5]; mouse, in vivo", "value": "32±2.12"},
      {"measurement": "ratio between growing and dormant follicles", "setting": "[5]; mouse, in vivo", "value": 1.31},
      {"measurement": "total number of growing follicles 3 days after Cy treatment", "setting": "[5]; mouse, in vivo", "value": "78.5±6.1"},
      {"measurement": "Granulosa cells in primary follicles, Extensive proliferation", "setting": "[6]; mouse, in vivo", "value": 21, "unit": "%"},
      {"measurement": "Granulosa cells in primary follicles, Mild proliferation", "setting": "[6]; mouse, in vivo", "value": 63, "unit": "%"},
      {"measurement": "Granulosa cells in primary follicles, No proliferation", "setting": "[6]; mouse, in vivo", "value": 16, "unit": "%"},
      {"measurement": "primary follicles classified as proliferating (either mild or extensive proliferation)", "setting": "[6]; mouse, in vivo", "value": 84, "unit": "%"},
      {"measurement": "relative band intensity of phosphorylated rpS6 (prpS6/rpS6 ratio)", "setting": "[7]", "value": 1.88}
    ]},
    {"compound": "CO[C@H]1C[C@@H]2CC[C@@H](C)[C@@](O)(O2)C(=O)C(=O)N2CCCC[C@H]2C(=O)O[C@H]([C@H](C)C[C@@H]2CC[C@@H](OC(=O)C(C)(CO)CO)[C@H](OC)C2)CC(=O)[C@H](C)/C=C(\\C)[C@@H](O)[C@@H](OC)C(=O)[C@H](C)C[C@H](C)/C=C/C=C/C=C/1C", "note": "[Tem, Temsirolimus]", "values": [
      {"measurement": "relative band intensity of phosphorylated mTOR (pmTOR/mTOR ratio)", "setting": "[1]", "value": 0.57},
      {"measurement": "PMF oocytes stained positive for cPARP (apoptosis)", "setting": "[3]", "value": 14, "unit": "%"},
      {"measurement": "PMF count 21 days after Cy treatment", "setting": "[5]; 8-week-old mice, single dose Cy 150 mg/kg, with or without Tem 5 mg/kg 5 doses, FIG. 3A", "value": "122.5±1.7"},
      {"measurement": "ratio between growing and dormant follicles", "setting": "[5]; 3 days after Cy 150 mg/kg, with or without Tem, FIG. 3C", "value": 0.66},
      {"measurement": "number of PMFs three weeks after treatment", "setting": "[5]; Cy 150 mg/kg, with or without Tem and/or rAMH (5 μg/mouse, 5 doses), FIG. 4", "value": "68.5±2.69"},
      {"measurement": "PMFs 3 days after Cy treatment", "setting": "[5]; [9]", "value": "101.6±8.9"},
      {"measurement": "total number of growing follicles 3 days after Cy treatment", "setting": "[5]; [9]", "value": "65.6±5.2"},
      {"measurement": "PMF loss", "setting": "[5]; three weeks after Cy 150 mg/kg, with or without co-treatment, FIG. 4", "value": 52, "unit": "%"},
      {"measurement": "PMFs on day 7 of culture", "setting": "[8]", "value": "124±5.9"},
      {"measurement": "Granulosa cells in primary follicles, Mild proliferation", "setting": "[6]; Ki-67, 1-2 granulosa cells stained, ovaries removed 24 hours after Cy 150 mg/kg or PBS", "value": 22, "unit": "%"},
      {"measurement": "Granulosa cells in primary follicles, Extensive proliferation", "setting": "[6]; Ki-67, 3 or more granulosa cells stained, ovaries removed 24 hours after Cy 150 mg/kg or PBS", "value": 5, "unit": "%"},
      {"measurement": "primary follicles classified as proliferating (either mild or extensive proliferation)", "setting": "[6]; Ki-67, 24 hours after Cy, alone or co-treated", "value": 32, "unit": "%"},
      {"measurement": "Granulosa cells in primary follicles, No proliferation", "setting": "[6]; Ki-67, ovaries removed 24 hours after Cy 150 mg/kg or PBS", "value": 73, "unit": "%"},
      {"measurement": "relative band intensity of phosphorylated rpS6 (prpS6/rpS6 ratio)", "setting": "[7]", "value": 0.3}
    ]}
  ]
}
